# From PMC9623087, “Bioaffinity ultrafiltration coupled with HPLC-ESI-MS/MS for screening potential α-glucosidase inhibitors from pomegranate peel” (Frontiers in Nutrition, 2022)
# Experiments:
# α-glucosidase [1] = molecular target: T1, α-glucosidase (Saccharomyces cerevisiae, UniProt P53341); assay: α-glucosidase inhibition assay (pNPG, absorbance at 405 nm); assay type: biochemical; conditions: 0.1 mg/mL and 0.5 mg/mL, Figure 1
# Experimental: Different concentrations (0.01, 0.1, 1, 5, and 10 mg/mL) of Pop extract samples, PBS (pH = 6.8), and α-glucosidase (5 U/mL) were mixed together with equal volumes and co-incubated at 37°C for 15 min. 20 μL pNPG (3 mM) was added to incubate for another 10 min and 150 μL Na2CO3 (0.1 mol/L) was used to stop the reaction. […] Meanwhile, the blank group without samples were simultaneously carried out and the inhibition ratios were calculated ([21], [22]).
# For identified compounds, two concentrations (0.1 mg/mL and 0.5 mg/mL) of each inhibitor were prepared and added to PBS (pH = 6.8) and α-glucosidase (5 U/mL) with equal volumes. After that, 20 μL pNPG (3 mM) was added to initiate the reactions and the changes of absorbance were recorded every 20 s immediately.
# α-glucosidase [2] = molecular target: T1, α-glucosidase; assay: Fluorescence quenching of α-glucosidase by EA (Stern–Volmer, binding and thermodynamic analysis)
# Experimental: The fluorescence spectra of α-glucosidase with or without EA were measured at three different temperatures (298, 304, and 310 K) according to the previous study ([21]). Exactly, 2.5 mL α-glucosidase (15 U/mL) was titrated by continuous additions of EA (5 μL each time) to reach a final concentration range from 0 to 19.89 × 10^–6 mol/L. After 5 min of equilibration under different temperatures, the steady fluorescence emission spectra were recorded from 300 to 460 nm with an excitation wavelength of 280 nm. Additionally, the fluorescence of free EA was measured as the background. According to fluorescence spectra data, the quenching constant (Ksv), binding constant (Ka), number of binding sites (n), the binding constant of accessible fluorophores, and the values of free energy change (△G^0), △H^0 and △S^0 were calculated according the previous reports ([21], [22], [25]).
# To further exploit the quenching mechanism, Ksv was calculated by Stern–Volmer equation to determine the quench type, dynamic quenching or static quenching:
# (1) F0/F=1+KSV[Q]=1+Kqτ0[Q]
# where F0 and F are the peak of fluorescence intensities of α-glucosidase […], respectively; Ksv is the dynamic quenching constant; Kq is the quenching rate constant; [Q] is the different concentrations of EA; τ0 is the average lifetime of fluorescence with the value of 10^–8 s.
# For static quenching, the equation as follow was employed to calculate binding constant (Ka) and number of binding sites (n) between EA and α-glucosidase:
# (2) lgF0-F/F=lgKa+nlg[Q]
# Thermodynamic analysis was performed to further determine the binding forces between EA and α-glucosidase, and the relevant thermodynamic parameters, including△G^0,△H^0, and △S^0, were calculated by the two following equations: […]
# α-glucosidase [3] = molecular target: T1, α-glucosidase; assay: Circular dichroism spectra, secondary structure contents of α-glucosidase; conditions: EA 2 mg/mL, α-glucosidase 5.0 U/mL
# Experimental: The analysis of CD spectrum was performed according to the previous report with some modifications ([26]). Briefly, both α-glucosidase and EA were dissolved in PBS (pH = 6.8). […] The spectrum scanning range was 200–250 nm, the response time and scanning speed were 1 s and […], respectively.
# Kunming mice = assay: Sucrose-loading test, postprandial blood glucose; assay type: in vivo; conditions: gavage, 0-120 min
# Experimental: Kunming mice (male, 35–40 g) were gained from Xi’an Jiaotong University (Xi’an, China). […] After gavage, the blood glucose levels were measured at 0, 15, 30, 45, 60, 90, and 120 min by glucose detection kit (Robio Co., Shanghai, China). The whole process conformed to the Guide for the Care and Use of Laboratory Animals, eighth edition (ISBN 10: 0-309-15396-4) ([22]).
# α-glucosidase [4] = molecular target: T1, α-glucosidase; assay: Kinetic analysis: Lineweaver–Burk plot and inhibitory reversibility; assay type: biochemical
# Experimental: Lineweaver–Burk plot was employed to determine the inhibitory type of EA against α-glucosidase ([23]). Briefly, 20 μL α-glucosidase (5 U/mL) was mixed with different concentrations (0, 10, 15, 20, 30 μg/mL) of EA and incubated at 37°C for 15 min. pNPG (1.0, 2.0, 4.0, and 8.0 × 10^–3 mol/L) was added to initiate the reaction and the changes of absorbance were recorded every 60 s immediately. The double-reciprocal plots of reaction velocity (υ) against different concentration of pNPG (1/υ vs. 1/[pNPG]) were analyzed using the Lineweaver–Burk plot to determine inhibition constant (Ki).
# To determine the inhibitory reversibility of EA against α-glucosidase, different concentrations (0, 20, 40, 60, and 100 μg/mL) of EA were reacted with the range of 7.5–1 U/mL α-glucosidase, the absorbance was recorded every 60 s immediately after the pNPG (3 mM) was added ([24]).
# α-glucosidase [5] = molecular target: T1, α-glucosidase; design: method as in PMID 20232167; conditions: EA isolated and identified from Rosa gallica; cited from earlier work
# α-glucosidase [6] = molecular target: T1, α-glucosidase; assay: Atomic force microscopy of α-glucosidase with EA; conditions: EA 40 μg/mL, α-glucosidase 2.0 U/mL, co-incubation 30 min
# T1 sequence (P53341 whole entry): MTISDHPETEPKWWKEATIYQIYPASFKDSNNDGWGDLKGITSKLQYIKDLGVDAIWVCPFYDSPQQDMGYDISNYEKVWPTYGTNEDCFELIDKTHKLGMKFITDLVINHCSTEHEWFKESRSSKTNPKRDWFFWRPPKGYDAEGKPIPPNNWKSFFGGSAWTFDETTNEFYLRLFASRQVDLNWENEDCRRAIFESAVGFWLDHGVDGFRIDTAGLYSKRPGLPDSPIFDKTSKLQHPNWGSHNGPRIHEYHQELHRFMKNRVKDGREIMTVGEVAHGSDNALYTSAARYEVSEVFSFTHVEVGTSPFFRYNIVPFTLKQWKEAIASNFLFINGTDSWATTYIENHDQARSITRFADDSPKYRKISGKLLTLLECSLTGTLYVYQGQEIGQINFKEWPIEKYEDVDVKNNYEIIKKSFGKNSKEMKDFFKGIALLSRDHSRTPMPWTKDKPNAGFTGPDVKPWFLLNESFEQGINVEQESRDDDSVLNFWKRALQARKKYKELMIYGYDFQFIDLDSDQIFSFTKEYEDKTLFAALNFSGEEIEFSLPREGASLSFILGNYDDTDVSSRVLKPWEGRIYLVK
structure (smiles),measurement,setting,value
"O=C(O)c1cc(O)c(O)c(O)c1 [gallic acid, Gallic acid]",α-glucosidase inhibitory activity of identified compounds (in words),α-glucosidase [1],strong activity
"Oc1ccc(/C=C/c2cc(O)cc(O)c2)cc1 [resveratrol, Resveratrol]",α-glucosidase inhibitory activity of identified compounds (in words),α-glucosidase [1],strong inhibitory activity
"O=c1oc2c(O)c(O)cc3c(=O)oc4c(O)c(O)cc1c4c23 [EA, Ellagic acid]",fluorescence quenching mechanism,α-glucosidase [2],static quenching mechanism
same,Ksv (quenching constant),α-glucosidase [2]; 298 K,4.75 ± 0.01 ×10^5 L/mol
same,n (number of binding sites),α-glucosidase [2]; 298 K,0.87
same,ΔG^0,α-glucosidase [2]; 298 K,-23.15 ± 0.03 kJ/mol
same,Ksv (quenching constant),α-glucosidase [2]; 304 K,4.05 ± 0.03 ×10^5 L/mol
same,n (number of binding sites),α-glucosidase [2]; 304 K,0.83
same,ΔG^0,α-glucosidase [2]; 304 K,-22.30 ± 0.06 kJ/mol
same,Ksv (quenching constant),α-glucosidase [2]; 310 K,3.32 ± 0.01 ×10^5 L/mol
same,n (number of binding sites),α-glucosidase [2]; 310 K,0.86
same,ΔG^0,α-glucosidase [2]; 310 K,-21.12 ± 0.05 kJ/mol
same,Kq (quenching rate constant),"α-glucosidase [2]; at each temperature (298, 304, 310 K)",> 2.0 × 10^10 L/mol⋅s
same,ΔH^0,"α-glucosidase [2]; from 298, 304 and 310 K",-73.55 ± 0.36 kJ/mol
same,ΔS^0,"α-glucosidase [2]; from 298, 304 and 310 K",−169.14 ± 0.33 J/mol⋅K
same,Random coil content of α-glucosidase,α-glucosidase [3]; VEA:Vα–glucosidase 25:200,28.43 ± 0.21%
same,α–helix content of α-glucosidase,α-glucosidase [3]; VEA:Vα–glucosidase 25:200,29.53 ± 0.29%
same,β–sheet content of α-glucosidase,α-glucosidase [3]; VEA:Vα–glucosidase 25:200,23.73 ± 0.21%
same,β–turn content of α-glucosidase,α-glucosidase [3]; VEA:Vα–glucosidase 25:200,18.07 ± 0.21%
same,Random coil content of α-glucosidase,α-glucosidase [3]; VEA:Vα–glucosidase 50:200,30.47 ± 0.33%
same,α–helix content of α-glucosidase,α-glucosidase [3]; VEA:Vα–glucosidase 50:200,28.17 ± 0.21%
same,β–sheet content of α-glucosidase,α-glucosidase [3]; VEA:Vα–glucosidase 50:200,26.60 ± 0.22%
same,β–turn content of α-glucosidase,α-glucosidase [3]; VEA:Vα–glucosidase 50:200,18.57 ± 0.29%
same,Random coil content of α-glucosidase,α-glucosidase [3]; VEA:Vα–glucosidase 100:200,32.87 ± 0.33%
same,α–helix content of α-glucosidase,α-glucosidase [3]; VEA:Vα–glucosidase 100:200,24.83 ± 0.29%
same,β–sheet content of α-glucosidase,α-glucosidase [3]; VEA:Vα–glucosidase 100:200,31.00 ± 0.54%
same,β–turn content of α-glucosidase,α-glucosidase [3]; VEA:Vα–glucosidase 100:200,18.70 ± 0.33%
same,α-glucosidase inhibitory activity of identified compounds (in words),α-glucosidase [1],strongest activity
same,reduction of AUC of blood glucose,Kunming mice; sucrose 2 g/kg + EA 25 mg/kg,31.8%
same,inhibitory type,"α-glucosidase [4]; Lineweaver–Burk plot, lines intersect on Y axis",competitive
same,inhibitory reversibility,"α-glucosidase [4]; υ vs. [α-glucosidase], EA 0-100 μg/mL",reversible
same,α-glucosidase inhibition (in words),α-glucosidase [5],almost no α-glucosidase inhibition
same,effect on α-glucosidase molecules observed by AFM (in words),α-glucosidase [6],aggregated together and formed irregular polymers
"C[C@H]1O[C@H](O[C@H]2[C@H](O)[C@@H](O)[C@@H](O[C@H]3[C@H](O)[C@@H](O)C(O)O[C@@H]3CO)O[C@@H]2CO)[C@H](O)[C@@H](O)[C@@H]1N[C@H]1C=C(CO)[C@@H](O)[C@H](O)[C@H]1O (some centres unmarked) [acarbose, Acarbose, reference compound]",reduction of AUC of blood glucose,Kunming mice; sucrose 2 g/kg + acarbose 50 mg/kg,36.4%
"O=c1c(O)c(-c2ccc(O)cc2)oc2cc(O)cc(O)c12 [kaempferol, Kaempferol]",α-glucosidase inhibitory activity of identified compounds (in words),α-glucosidase [1],strong activity
